Results taken from the NIST ThermoML archive (doi:10.1021/acs.jced.6b00606).
Numbers after ± are expanded uncertainties.

Legend:
[1] = Liquid; for speed of sound: 100 kPa, Frequency=3 MHz, Sing-around technique in a fixed-path interferometer; for mass density: 101.33 kPa, Vibrating tube method
[2] = molar heat capacity at constant pressure; details: 101.33 kPa, Liquid, Extra sensitive DSC

| speed of sound ([1]; 293.15 K) | mass density ([1]; 293.15 K) | speed of sound ([1]; 298.15 K) | mass density ([1]; 298.15 K) | speed of sound ([1]; 303.15 K) | mass density ([1]; 303.15 K) | speed of sound ([1]; 308.15 K) | mass density ([1]; 308.15 K) | molar heat capacity at constant pressure ([2]; 293.15 K) | molar heat capacity at constant pressure ([2]; 298.15 K) | molar heat capacity at constant pressure ([2]; 303.15 K) | molar heat capacity at constant pressure ([2]; 308.15 K) | Compound |
| --- | --- | --- | --- | --- | --- | --- | --- | --- | --- | --- | --- | --- |
| 1367.8 ± 1.5 m/s | 1033.59 ± 1 kg/m3 | 1346 ± 1.5 m/s | 1027.94 ± 1 kg/m3 | 1324.4 ± 1.5 m/s | 1022.28 ± 1 kg/m3 | 1302.5 ± 1.5 m/s | 1016.59 ± 1 kg/m3 | 151.62 ± 5.9 J/K/mol | 152.76 ± 5.9 J/K/mol | 153.92 ± 6 J/K/mol | 155.09 ± 6 J/K/mol | C1COCCO1 [1,4-dioxane] |
| 1477.3 ± 1.6 m/s | 951.85 ± 1 kg/m3 | 1455 ± 1.6 m/s | 947.62 ± 1 kg/m3 | 1432.4 ± 1.6 m/s | 943.38 ± 1 kg/m3 | 1409.6 ± 1.6 m/s | 939.14 ± 1 kg/m3 | 201.11 ± 7.8 J/K/mol | 202.01 ± 7.8 J/K/mol | 203.21 ± 7.9 J/K/mol | 204.51 ± 7.9 J/K/mol | O=C1CCCCCC1 [cycloheptanone] |
| 1431.2 ± 1.3 m/s | 947.38 ± 1 kg/m3 | 1415.5 ± 1.3 m/s | 942.92 ± 1 kg/m3 | 1395.1 ± 1.3 m/s | 938.07 ± 1 kg/m3 | 1375.1 ± 1.3 m/s | 933.19 ± 1 kg/m3 | 176.17 ± 6.8 J/K/mol | 178.27 ± 6.9 J/K/mol | 180.38 ± 7 J/K/mol | 182.46 ± 7.1 J/K/mol | O=C1CCCCC1 [cyclohexanone] |
| 1293 ± 1.4 m/s | 884.23 ± 1 kg/m3 | 1269.7 ± 1.4 m/s | 879.09 ± 1 kg/m3 | 1246.7 ± 1.4 m/s | 873.91 ± 1 kg/m3 | 1224.3 ± 1.4 m/s | 868.75 ± 1 kg/m3 | 148.03 ± 5.7 J/K/mol | 149.68 ± 5.8 J/K/mol | 151.18 ± 5.9 J/K/mol | 153.01 ± 5.9 J/K/mol | C1CCOCC1 [tetrahydropyran] |
